Data as given in article PMC12554789, “Benzoxazole Derivatives as Potent FXR and PPARα Dual Agonists With Anti‐Fibrotic and Metabolic Regulatory Effects” (MedComm, 2025).

Columns and labels:
[1] = biological target: T1, FXR LBD (Homo sapiens, UniProt Q96RI1); test: Thermal shift assay, FXR LBD; assay type: binding; conditions: ligand 20 µM
T1 construct: purchased Sigma SRP2137
T1 sequence (Q96RI1 262-486 limits assumed): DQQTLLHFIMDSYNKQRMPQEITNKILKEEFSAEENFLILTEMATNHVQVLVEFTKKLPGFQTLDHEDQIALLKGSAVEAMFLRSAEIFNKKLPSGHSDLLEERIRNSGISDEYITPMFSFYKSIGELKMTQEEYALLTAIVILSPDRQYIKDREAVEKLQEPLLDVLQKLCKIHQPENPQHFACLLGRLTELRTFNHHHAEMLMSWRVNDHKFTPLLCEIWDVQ

[2] = tested on: TAA-induced liver fibrosis model; test: TAA-induced liver fibrosis mouse model (8 weeks); assay type: in vivo
Description: To further explore the effects on fibrosis suppression, a thioacetamide (TAA)-induced liver fibrosis model was used. Liver fibrosis was induced by intraperitoneal injection of TAA at a dose of 150 mg/kg, administered three times a week for 8 weeks. […] After the treatment period, the mice were euthanized using CO2. Serum was collected for biochemical analysis, and liver tissues were immediately harvested and frozen in liquid nitrogen for subsequent quantitative reverse transcription polymerase chain reaction (qRT-PCR), western blotting, and biological analysis. Furthermore, some liver samples were fixed in 4% paraformaldehyde buffered to neutral pH for histochemical analysis. For long-term storage, remaining liver samples were stored at -80°C in a deep freezer. […] Liver fibrosis was induced by administering TAA intraperitoneally at a dose of 150 mg/kg three times a week for a duration of […]. […] Upon completion of the treatment period, mice were euthanized using CO2, and serum and liver tissue samples were harvested for subsequent evaluation. Serum samples collected from mice were incubated at room temperature for 20 min before being centrifuged at 3000 rpm for 20 min to separate blood cells and clotting factors. Serum alanine transaminase (ALT) and aspartate aminotransferase (AST) activities were measured using ALT and AST assay kits (Asan Pharm, Seoul, Republic of Korea) to assess liver injury. Blood urea nitrogen (BUN) levels in the serum were analyzed using a commercial assay kit ([…]-BUN, […] Diagnostics, Seoul, Republic of Korea; catalog number 1120171) following the manufacturer's guidelines. Creatinine levels in the serum were quantified using the […] assay kit ([…] Diagnostics; catalog number 1120051) in accordance with the manufacturer's instructions. Liver and kidney tissues were processed to detect histological changes through the following procedures. The tissues were fixed in 4% paraformaldehyde, and paraffin-embedded sections were prepared for H&E staining according to standard procedures. […]

[3] = biological target: T2, PPARα LBD (Homo sapiens, UniProt Q07869); test: Thermal shift assay, PPARα LBD; assay type: binding; conditions: ligand 20 µM
T2 construct: purchased Sigma SRP2054
T2 sequence (Q07869 239-466 limits assumed): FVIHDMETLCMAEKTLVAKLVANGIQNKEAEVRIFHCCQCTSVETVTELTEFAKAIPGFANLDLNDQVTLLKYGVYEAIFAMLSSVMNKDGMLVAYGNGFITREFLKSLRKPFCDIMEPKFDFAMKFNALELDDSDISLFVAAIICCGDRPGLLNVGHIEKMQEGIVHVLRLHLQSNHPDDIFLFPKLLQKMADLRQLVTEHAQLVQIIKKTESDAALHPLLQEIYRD

Melting temperature of FXR LBD [1]	Melting temperature of PPARα LBD [3]	Compound	Damaged hepatocytes (H&E) ([2]; TAA mice)	Serum AST level ([2]; TAA mice, oral 3 mg/kg daily, increase still higher than in MHY5396 group)	Protection against fibrosis ([2]; TAA model, MHY5396 versus OCA)
altered		CC[C@H]1[C@@H](O)[C@@H]2[C@H](CC[C@]3(C)[C@@H]([C@H](C)CCC(=O)O)CC[C@@H]23)[C@@]2(C)CC[C@@H](O)C[C@@H]12 [OCA, obeticholic acid]	fewer damaged hepatocytes	smaller increase in AST levels than that in the TAA group	protective effects against fibrosis
	altered	CC(C)(Oc1ccc(C(=O)c2ccc(Cl)cc2)cc1)C(=O)O [fenofibric acid]			
